Assay results taken from ChEMBL document CHEMBL1140748, “Synthesis and biological evaluation of novel 2,4-diaminoquinazoline derivatives as SMN2 promoter activators for the potential treatment of spinal muscular atrophy” (J Med Chem, 2008).
pEC50: −log10 of the molar value.

Experiments:
[1] = Activation of SMN2 promoter in mouse NSC34 cells assessed as induction of beta-lactamase activity; assay type: functional, cell-based
[2] = Activation of SMN2 promoter in mouse NSC34 cells assessed as induction of beta-lactamase activity relative to nonactivated cells; assay type: functional
Throughout, for activity: test concentration or dose not given here.

Compound	pEC50 ([1]; Mus musculus, NSC-34)	Activity [2]	pEC50 ([1]; nsc34)
CC(Oc1cccc2nc(N)nc(N)c12)c1ccc(Cl)cc1 (racemic)	7.10		
Cc1ccccc1C(=O)N1CCC(COc2cccc3nc(N)nc(N)c23)CC1	6.80	2.5	
Cc1cccc(CN2CCC(COc3cccc4nc(N)nc(N)c34)CC2)c1	7.66	1.9	
Nc1nc(N)c2c(OCC3CCN(Cc4ccc(F)c(F)c4)CC3)cccc2n1	6.49	2	
Nc1nc(N)c2c(OCc3ccco3)cccc2n1	6.52	1.7	
CN1CCCCC1COc1cccc2nc(N)nc(N)c12 (centres undefined)	6.85	1.9	
Nc1nc(N)c2c(OC3(c4cccc(Cl)c4)CC3)cccc2n1	6.54		
Cc1cccc(S(=O)(=O)N2CCC(COc3cccc4nc(N)nc(N)c34)CC2)c1	6.66	1.8	
Cc1ccc(S(=O)(=O)N2CCC(COc3cccc4nc(N)nc(N)c34)CC2)cc1	6.26	1.9	
Nc1nc(N)c2c(Oc3cccc4ccncc34)cccc2n1	5.61	1.59	
CC(Oc1cccc2nc(N)nc(N)c12)c1ccccc1 (racemic)	6.62		
Nc1nc(N)c2c(OC3(c4cccc(Cl)c4)CCCCC3)cccc2n1	5.77		
Nc1nc(N)c2c(OCC3CCN(C(=O)c4cccc5ccccc45)CC3)cccc2n1	7.46	2.5	
Nc1nc(N)c2c(COc3ccc(Cl)cc3)cccc2n1	6.72	2	
CC(Oc1cccc2nc(N)nc(N)c12)c1ccc(F)cc1 (racemic)	7.74		
Nc1nc(N)c2c(OCc3c(F)cccc3F)cccc2n1	6.72	1.8	
Cc1ccc(C(=O)N2CCC(COc3cccc4nc(N)nc(N)c34)CC2)cc1	6.88	2.6	
CC(Oc1cccc2nc(N)nc(N)c12)c1ccc(C(F)(F)F)cc1 (racemic)	7.30		
CC(Oc1cccc2nc(N)nc(N)c12)c1ccc(Cl)c(Cl)c1 (racemic)	6.49		
C[C@H](Oc1cccc2nc(N)nc(N)c12)c1cccc2ccccc12	5.62		
Cc1cccc(C(=O)N2CCC(COc3cccc4nc(N)nc(N)c34)CC2)c1	6.96	2.2	
CC(Oc1cccc2nc(N)nc(N)c12)c1cccc(F)c1 (racemic; form 2)	7.30		
CC(C)(C)COc1cccc2nc(N)nc(N)c12	6.19	2.1	
COc1ccccc1COc1cccc2nc(N)nc(N)c12	7.19	1.6	
Nc1nc(N)c2c(OCc3ccccn3)cccc2n1	6.60	1.9	
Nc1nc(N)c2c(OCc3cccc(C(F)(F)F)c3)cccc2n1	7.64	1.5	

Compound	pEC50 ([1]; Mus musculus, NSC-34)	Activity [2]	pEC50 ([1]; nsc34)
Cc1cccc(COc2cccc3nc(N)nc(N)c23)c1	6.92	1.7	
Nc1nc(N)c2c(Oc3ccc(Cl)cc3)cccc2n1	5.69	1.84	
Nc1nc(N)c2c(OCC3CCN(Cc4ccc(Cl)cc4)CC3)cccc2n1	7.33	1.8	
Nc1nc(N)c2c(Oc3ccc(F)cc3)cccc2n1	5.88	1.7	
Nc1nc(N)c2c(OCC3CCN(Cc4ccccc4Cl)CC3)cccc2n1	7.42	2	
Nc1nc(N)c2c(OCC3CCN(C(=O)c4ccc5ccccc5c4)CC3)cccc2n1	6.82	2.4	
Nc1nc(N)c2c(OCc3cccs3)cccc2n1	7.14	1.9	
Cc1ccc(COc2cccc3nc(N)nc(N)c23)cc1	6.66	2.04	
Nc1nc(N)c2c(OCC3CCN(S(=O)(=O)c4ccc(F)cc4F)CC3)cccc2n1	7.09	2	
Nc1nc(N)c2c(OCC3CCN(Cc4ccc5ccccc5c4)CC3)cccc2n1	6.83	1.7	
Nc1nc(N)c2c(Oc3ccccc3Cl)cccc2n1	6.29	1.76	
CC(C)(C)C(Oc1cccc2nc(N)nc(N)c12)c1ccc(Cl)cc1 (racemic)	5.11		
Nc1nc(N)c2c(OCc3ccc(F)c(F)c3)cccc2n1	7.85	1.8	
CCCCOc1cccc2nc(N)nc(N)c12	6.85	2.2	
CCCOc1cccc2nc(N)nc(N)c12	6.74	2.1	
Nc1nc(N)c2c(OCc3cc4ccccc4cn3)cccc2n1	6.66	2.3	
Nc1nc(N)c2c(OCC3CCN(C(=O)c4ccc(F)cc4F)CC3)cccc2n1	7.05	2.4	
Nc1nc(N)c2c(OCc3ccc(F)cc3F)cccc2n1	6.92	1.8	
Nc1nc(N)c2c(OCc3cc(F)cc(F)c3)cccc2n1	7.85	1.9	
Nc1nc(N)c2c(COc3ccccc3Cl)cccc2n1	5.94	2.2	
C[C@H](Oc1cccc2nc(N)nc(N)c12)c1ccccc1	7.22		
Nc1nc(N)c2c(OCc3cccnc3)cccc2n1	7.62	2.1	
Nc1nc(N)c2c(OCC3CCN(C(=O)c4ccccc4F)CC3)cccc2n1	7.13	2.5	
Nc1nc(N)c2c(OCc3ccc(C(F)(F)F)cc3)cccc2n1	7.77	1.6	
Cc1ccc(OCc2cccc3nc(N)nc(N)c23)cc1	6.39	2.2	
CC(C)CCOc1cccc2nc(N)nc(N)c12	7.01	2	

Compound	pEC50 ([1]; Mus musculus, NSC-34)	Activity [2]	pEC50 ([1]; nsc34)
Nc1nc(N)c2c(OCC3CCCCC3)cccc2n1	5.57	1.9	
Nc1nc(N)c2c(OCc3ccccc3C(F)(F)F)cccc2n1	7.80	1.6	
Nc1nc(N)c2c(OCC3CCN(S(=O)(=O)c4ccc(F)c(F)c4)CC3)cccc2n1	7.40	2.1	
C[C@@H](Oc1cccc2nc(N)nc(N)c12)c1ccccc1	6.66		
Cc1ccccc1CN1CCC(COc2cccc3nc(N)nc(N)c23)CC1	7.74	1.9	
Nc1nc(N)c2c(OCC3CCN(C(=O)c4cccc(F)c4F)CC3)cccc2n1	7.17	2.5	
CC(Oc1cccc2nc(N)nc(N)c12)c1ccccc1C(F)(F)F (racemic)	6.00		
CCOc1cccc2nc(N)nc(N)c12	6.77	2.1	
CC(Oc1cccc2nc(N)nc(N)c12)c1cccc(F)c1 (racemic; form 1)			7.26
Cc1ccc(CN2CCC(COc3cccc4nc(N)nc(N)c34)CC2)cc1.Cl	7.62	1.9	
CC(Oc1cccc2nc(N)nc(N)c12)c1cc(F)cc(F)c1 (racemic)	7.46		
CC(C)COc1cccc2nc(N)nc(N)c12	6.74	1.8	
Cl.Nc1nc(N)c2c(OCC3CCN(Cc4ccc(F)cc4F)CC3)cccc2n1	7.74	1.9	
CC(Oc1cccc2nc(N)nc(N)c12)c1ccccc1Cl (racemic)	6.54		
CC(C)(Oc1cccc2nc(N)nc(N)c12)c1cccc(Cl)c1	5.63		
Nc1nc(N)c2c(OCC3CCN(S(=O)(=O)c4ccc(Cl)cc4)CC3)cccc2n1	6.22	2	
Nc1nc(N)c2c(OCC3CCN(S(=O)(=O)c4ccc5ccccc5c4)CC3)cccc2n1	6.33	2	
Nc1nc(N)c2c(OCc3cccc(F)c3)cccc2n1	7.26	1.59	
Cc1ccccc1COc1cccc2nc(N)nc(N)c12	6.55	1.6	
Nc1nc(N)c2c(OCc3cc(F)ccc3F)cccc2n1	7.33	2	
CC(Oc1cccc2nc(N)nc(N)c12)c1cccc(C(F)(F)F)c1 (racemic)	7.33		
Nc1nc(N)c2c(OCC3CCN(S(=O)(=O)c4cccc(Cl)c4)CC3)cccc2n1	6.76	1.9	
C[C@H](Oc1cccc2nc(N)nc(N)c12)c1ccc2ccccc2c1	6.36		
CC(Oc1cccc2nc(N)nc(N)c12)c1ccc2c(c1)OCO2 (racemic)	5.95		
CCC(Oc1cccc2nc(N)nc(N)c12)c1ccc(Cl)cc1 (racemic)	6.77		
C[C@@H](Oc1cccc2nc(N)nc(N)c12)c1cccc(Cl)c1	7.49		
